Data from patent US20090325959A1 (priority 2008, published 2009).
Read-outs that look alike come from different tables or passages of the source.

Assays:
Akt3 human enzyme = target: T1, Akt3 human enzyme (Homo sapiens, UniProt Q9Y243); assay: Akt3 inhibition assay (IMAP FP); format: biochemical;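 also: kinase reaction run 60 min at room temperature after 30 µM ATP start, phosphorylated substrate captured on IMAP beads and read as fluorescence polarization (mP)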
T1 construct: purchased Upstate Chemicon 14-502
T1 sequence (Q9Y243 whole entry): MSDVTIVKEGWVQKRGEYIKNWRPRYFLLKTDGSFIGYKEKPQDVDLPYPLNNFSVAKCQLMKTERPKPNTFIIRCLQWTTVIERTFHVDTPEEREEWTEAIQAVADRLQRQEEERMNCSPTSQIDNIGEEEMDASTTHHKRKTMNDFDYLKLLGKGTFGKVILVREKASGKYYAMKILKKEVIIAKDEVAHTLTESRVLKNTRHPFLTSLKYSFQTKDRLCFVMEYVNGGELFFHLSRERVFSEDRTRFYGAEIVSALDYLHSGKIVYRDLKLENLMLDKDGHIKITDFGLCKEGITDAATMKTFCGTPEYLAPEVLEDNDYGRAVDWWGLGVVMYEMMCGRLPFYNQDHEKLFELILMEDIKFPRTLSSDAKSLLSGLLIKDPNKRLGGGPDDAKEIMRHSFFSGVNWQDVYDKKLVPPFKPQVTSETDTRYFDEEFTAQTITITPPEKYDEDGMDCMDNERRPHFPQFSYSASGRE

ROCK2 = target: T2, ROCK2 (Homo sapiens, UniProt O75116); assay: Rho kinase inhibition assay (IMAP fluorescence polarization), ROCK2; format: biochemical;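 also: kinase reaction started with 10 µM ATP and run 60 min at room temperature, then phosphorylated substrate captured on IMAP beads for 30 min and fluorescence polarization read in mP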
T2 construct: purchased Upstate/Chemicon 14-451
T2 sequence (O75116 11-552 limits assumed): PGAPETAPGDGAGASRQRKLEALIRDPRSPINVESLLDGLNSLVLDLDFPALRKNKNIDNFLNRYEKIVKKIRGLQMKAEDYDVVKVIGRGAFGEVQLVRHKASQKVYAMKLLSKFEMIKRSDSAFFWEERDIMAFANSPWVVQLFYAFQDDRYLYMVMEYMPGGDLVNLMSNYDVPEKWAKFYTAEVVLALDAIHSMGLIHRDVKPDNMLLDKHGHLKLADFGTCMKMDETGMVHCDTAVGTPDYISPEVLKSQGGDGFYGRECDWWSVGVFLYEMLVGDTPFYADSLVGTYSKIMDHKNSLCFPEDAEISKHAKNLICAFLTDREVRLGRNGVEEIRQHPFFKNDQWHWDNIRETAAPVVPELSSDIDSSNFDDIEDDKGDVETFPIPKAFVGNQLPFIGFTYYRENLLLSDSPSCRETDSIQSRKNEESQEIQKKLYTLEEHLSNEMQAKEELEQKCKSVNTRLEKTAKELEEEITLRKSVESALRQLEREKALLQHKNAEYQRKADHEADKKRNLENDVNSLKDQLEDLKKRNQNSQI
Protocol: (§1) Following the pre-incubation, 10 μM ATP was added to initiate the reaction. After 60 minutes at room temperature, Molecular Devices IMAP™ binding solution was added to bind phosphorylated substrate. After 30 minutes of incubation in the presence of the IMAP™ beads, the fluorescence polarization was read and the ratio was reported as mP. IC50 values for compounds and EC50 values for ATP were calculated using the Prism software from Graphpad.

ROCK1 = target: T3, ROCK1 (Homo sapiens, UniProt Q13464); assay: Rho kinase inhibition assay (IMAP fluorescence polarization), ROCK1; format: biochemical;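 also: kinase reaction run 60 min at room temperature, then phosphorylated substrate captured on IMAP beads for 30 min, with fluorescence polarization read in mP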
T3 construct: purchased Upstate/Chemicon 14-601
T3 sequence (Q13464 17-535 limits assumed): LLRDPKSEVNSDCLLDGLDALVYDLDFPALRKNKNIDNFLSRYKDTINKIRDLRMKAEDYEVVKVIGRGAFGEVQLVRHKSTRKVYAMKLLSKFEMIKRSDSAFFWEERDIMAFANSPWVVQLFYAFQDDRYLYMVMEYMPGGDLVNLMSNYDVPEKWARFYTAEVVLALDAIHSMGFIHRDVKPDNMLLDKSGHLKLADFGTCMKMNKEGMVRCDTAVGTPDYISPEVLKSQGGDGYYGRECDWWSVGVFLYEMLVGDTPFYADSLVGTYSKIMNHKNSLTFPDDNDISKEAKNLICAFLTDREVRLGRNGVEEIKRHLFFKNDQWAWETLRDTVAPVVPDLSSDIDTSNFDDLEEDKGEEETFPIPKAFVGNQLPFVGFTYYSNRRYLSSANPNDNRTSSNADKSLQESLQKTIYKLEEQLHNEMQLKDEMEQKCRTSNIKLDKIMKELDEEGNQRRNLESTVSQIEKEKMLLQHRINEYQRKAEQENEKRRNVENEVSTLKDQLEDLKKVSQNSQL
Protocol: as §1

p70S6K human enzyme = target: T4, p70S6K human enzyme (Homo sapiens, UniProt P23443, T412E); assay: p70S6K inhibition assay (IMAP FP); format: biochemical;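 also: kinase reaction run at room temperature, phosphorylated substrate captured on IMAP beads and read as fluorescence polarization in mP, IC50 then converted to Ki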
T4 construct: purchased Upstate Chemicon 14-486
T4 sequence (P23443 1-421 T412E limits assumed): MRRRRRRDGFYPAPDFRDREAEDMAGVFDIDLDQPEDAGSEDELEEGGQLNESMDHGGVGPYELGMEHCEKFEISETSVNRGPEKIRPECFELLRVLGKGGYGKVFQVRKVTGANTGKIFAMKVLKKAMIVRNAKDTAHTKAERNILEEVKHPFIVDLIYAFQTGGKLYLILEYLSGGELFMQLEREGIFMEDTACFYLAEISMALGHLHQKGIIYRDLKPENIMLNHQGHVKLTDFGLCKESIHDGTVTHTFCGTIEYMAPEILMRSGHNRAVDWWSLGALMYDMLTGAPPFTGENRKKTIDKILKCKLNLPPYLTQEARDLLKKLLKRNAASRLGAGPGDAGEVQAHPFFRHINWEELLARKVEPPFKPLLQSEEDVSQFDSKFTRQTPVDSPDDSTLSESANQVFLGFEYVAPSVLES

[1] = Compound plasma concentrations in unsensitized mice at 15 min post administration; format: in vivo; conditions: mouse, 15 μmol/kg; mean compound plasma concentration in mice at 15 minutes post oral administration; read-out: Mouse Oral PK
[2] = 30 μM ATP, Ki=IC50/(1+([ATP Challenge]/EC50 ATP)), read-out: Akt3 Ki, Avg
[3] = 10 μM ATP, read-out: ROCK2 Ki, Avg
[4] = 30 μM ATP, Ki=IC50/(1+([ATP Challenge]/EC50 ATP)), read-out: p70S6K Ki, Avg
[5] = average Ki, read-out: p70S6K Ki

Compound | Ki (Akt3 human enzyme; [2]) | Ki (Akt3 human enzyme; average Ki, read-out: Akt3 Ki) | Ki (ROCK2; [3]) | Ki (ROCK2; average Ki, read-out: ROCK2 Ki) | Ki (ROCK1; Avg, 10 μM ATP) | Ki (ROCK1; average Ki) | Ki (p70S6K human enzyme; [4]) | Ki (p70S6K human enzyme; [5]) | concentration at 15 min [1]
CSc1ccc(CN2CCC[C@H](Nc3ccc4[nH]ncc4c3)C2)cc1 [Compound 1.075, (S)-N-(1-(4-(methylthio)benzyl)piperidin-3-yl)-1H-indazol-5-amine] | 5320 nM | 5320 nM | 4.4 nM | 4.4 nM | 48.7 nM | 48.7 nM | 975 nM | 975 nM | 348 nM
CS(=O)(=O)Nc1cccc(CN2CCC[C@@H](Nc3ccc4[nH]ncc4c3)C2)c1 [Compound 1.093, (R)-N-(3-((3-(1H-indazol-5-ylamino)piperidin-1-yl)methyl)phenyl)methanesulfonamide] | 1820 nM | 1820 nM | 7.7 nM | 7.7 nM | 64.5 nM | 64.5 nM | 2030 nM | 2030 nM | 363 nM
Brc1ccc(CN2CCC[C@@H](Nc3ccc4[nH]ncc4c3)C2)cc1 [Compound 1.134, (R)-N-(1-(4-bromobenzyl)piperidin-3-yl)-1H-indazol-5-amine] | 151 nM | 151 nM | 4.4 nM | 4.4 nM | 22.4 nM | 22.4 nM | 520 nM | 520 nM | 1550 nM
c1cc2c(cc1CN1CCC[C@H](Nc3ccc4[nH]ncc4c3)C1)OCCO2 [Compound 1.166, (S)-N-(1-((2,3-dihydrobenzo[b][1,4]dioxin-6-yl)methyl)piperidin-3-yl)-1H-indazol-5-amine] | 18100 nM | 18100 nM | 8 nM | 8 nM | 95.2 nM | 95.2 nM | 5160 nM | 5160 nM | 342 nM
Cc1ccc(CN2CCC[C@@H](Nc3ccc4[nH]ncc4c3)C2)cc1 [Compound 1.133, (R)-N-(1-(4-methylbenzyl)piperidin-3-yl)-1H-indazol-5-amine] | 148 nM | 148 nM | 4.3 nM | 4.3 nM | 25 nM | 25 nM | 532 nM | 532 nM | 1100 nM
Fc1ccc(CN2CCC[C@H](Nc3ccc4[nH]ncc4c3)C2)cc1 [Compound 1.164, (S)-N-(1-(4-fluorobenzyl)piperidin-3-yl)-1H-indazol-5-amine] | 4310 nM | 4310 nM | 6.1 nM | 6.1 nM | 42.4 nM | 42.4 nM | 1960 nM | 1960 nM | 1500 nM
OCc1ccc(CN2CCC[C@H](Nc3ccc4[nH]ncc4c3)C2)cc1 [Compound 1.223, (S)-(4-((3-(1H-indazol-5-ylamino)piperidin-1-yl)methyl)phenyl)methanol] | 11100 nM | 11100 nM | 15.7 nM | 15.7 nM | 239 nM | 239 nM | 3100 nM | 3100 nM | 13 nM
Cc1cccc(CN2CCC[C@H](Nc3ccc4[nH]ncc4c3)C2)c1C [Compound 1.156, (S)-N-(1-(2,3-dimethylbenzyl)piperidin-3-yl)-1H-indazol-5-amine] | 8770 nM | 8770 nM | 13 nM | 13 nM | 136 nM | 136 nM | 3240 nM | 3240 nM | 88 nM
CCOC(=O)COc1cccc(CN2CCC[C@H](Nc3ccc4[nH]ncc4c3)C2)c1 [Compound 1.200, (S)-ethyl 2-(3-((3-(1H-indazol-5-ylamino)piperidin-1-yl)methyl)phenoxy)acetate] | 10600 nM | 10600 nM | 5.9 nM | 5.9 nM | 76.5 nM | 76.5 nM | 3900 nM | 3900 nM | 0 nM
